Here are results for 40 molecules from patent US11708353B2, “Inhibitors of prolyl-tRNA-synthetase” (The General Hospital Corporation, priority 2018, dated 2023).

Read-outs that look alike come from different tables or passages of the source.

Assay [1] has as its system P. falciparum Dd2 wildtype. Description: SYBR Green I asexual blood stage growth assay, Dd2 wildtype. The format is cell-based. Particulars: Plasmodium falciparum. As for the experimental part:
(§1) P. falciparum parasite growth was determined using a fluorescence assay based on the SYBR Green I method according to previously reported protocols (see e.g., Johnson et al, Antimicrob. Agents Chemother. 2007, 51(6):1926-1933). P. falciparum parasites were seeded in 384-well plates at 1% hematocrit and 1% starting parasitemia. Growth was assessed by SYBR Green staining of parasite DNA after 72-hour exposure to compound. All dose-response assays were carried out with 12-point dilutions in technical triplicate. Compounds were dispensed with an HP D300 Digital Dispenser (Hewlett Packard, Palo Alto, Calif., USA). Fluorescence intensity measurements were performed on a SpectraMax M5 (Molecular Devices, Sunnyvale, Calif., USA) and analyzed in GraphPad Prism version 7 (GraphPad Software, La Jolla, Calif., USA) after background subtraction and normalization to control wells. EC50 values were determined using a four-parameter nonlinear regression curve fit from at least three assays and are represented as mean±standard deviation. Statistical significance was determined by the Mann Whitney test.

The test system of assay [2] is HFG-tolerant 3D7 parasites. Description: Antiparasitic activity in HFG-tolerant 3D7 parasites. It counts as cell-based. Particulars: Plasmodium falciparum, 3D7, read-out: EC50 in HFG-tolerant parasites. As for the experimental part: as §1, with “test. […]” for “test.”
For assay [3], the system named is P. falciparum Dd2 (10× resistence to halofuginone). Nature of the assay: SYBR Green I asexual blood stage growth assay, Dd2 10x halofuginone-resistant. The format is cell-based. Particulars: Plasmodium falciparum, DD2, 72 h, read-out: P. falciparum Dd2 (10× resistence to halofuginone) Asexual blood stage IC50 (nM). As for the experimental part:
as §1

The test system of assay [4] is P. falciparum Dd2 (>100× resistence to halofuginone). Description: SYBR Green I asexual blood stage growth assay, Dd2 >100x halofuginone-resistant. It counts as cell-based. To be noted: Plasmodium falciparum, DD2, 72 h, read-out: P. falciparum Dd2 (>100× resistence to halofuginone) Asexual blood stage IC50 (nM). As for the experimental part:
as §1

Assay [5] concerns the target T1, Plasmodium falciparum cytoplasmic prolyl tRNA synthetase (PfcPRS) (Plasmodium falciparum, UniProt Q8I5R7).
T1 sequence (Q8I5R7 1-746): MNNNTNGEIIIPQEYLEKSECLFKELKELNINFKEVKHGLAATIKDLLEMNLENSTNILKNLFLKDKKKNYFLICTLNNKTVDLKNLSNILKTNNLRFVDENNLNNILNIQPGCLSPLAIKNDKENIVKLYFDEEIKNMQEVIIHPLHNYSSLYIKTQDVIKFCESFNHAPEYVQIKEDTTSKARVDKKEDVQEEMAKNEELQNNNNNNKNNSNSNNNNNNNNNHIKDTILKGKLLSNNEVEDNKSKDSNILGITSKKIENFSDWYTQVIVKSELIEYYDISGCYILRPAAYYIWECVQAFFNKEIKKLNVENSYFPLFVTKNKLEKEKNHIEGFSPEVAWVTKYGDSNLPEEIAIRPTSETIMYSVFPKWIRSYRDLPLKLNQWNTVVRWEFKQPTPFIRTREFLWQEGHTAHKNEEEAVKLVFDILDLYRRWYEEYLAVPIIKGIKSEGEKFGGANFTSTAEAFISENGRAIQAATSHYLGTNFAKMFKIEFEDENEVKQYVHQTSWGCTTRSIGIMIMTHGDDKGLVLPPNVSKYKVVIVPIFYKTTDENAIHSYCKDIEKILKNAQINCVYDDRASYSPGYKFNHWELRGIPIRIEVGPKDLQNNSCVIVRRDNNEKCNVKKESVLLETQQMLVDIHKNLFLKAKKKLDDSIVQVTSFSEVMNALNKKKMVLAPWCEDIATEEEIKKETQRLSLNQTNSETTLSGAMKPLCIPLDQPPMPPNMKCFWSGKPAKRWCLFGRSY
Nature of the assay: Thermal shift (differential scanning fluorimetry) assay. It counts as binding. As for the experimental part:
Thermal shift assays were performed in tetricate as previously described (Hewitt et al., 2016). 12.5 μL solutions of 0.14 mg/mL purified recombinant Plasmodium falciparum cytoplasmic prolyl tRNA synthetase (PfcPRS) in a buffer containing […] test compounds (1 mM Compound 18+1 mM Proline; 1 mM Compound 18+0 mM Proline; or DMSO vehicle control), 25 mM HEPES, pH 7.0, 100 mM NaCl, 5 v/v % glycerol, 1 mM TCEP, and optionally 1 mM Proline were incubated at 37° C. for 2 hours in 96 well PCR plates. To this was added 2.5 μL 8× SYRPO Orange Dye (Applied Biosystems 4461141) and 5 μL Protein Thermal Shift Buffer (Applied Biosystems 4461335). Protein stability for protein samples containing the test compounds was compared with apo protein samples by measuring an increase in fluorescence as detected on an Applied Biosystems SDS 7500 Fast qPCR Thermocycler from 25° C. to 99° C. at half degree increments.

The subject of the next assay is wild-type 3D7 parasites. Nature of the assay: Antiparasitic activity in wild-type 3D7 parasites. The format is cell-based. Particulars: Plasmodium falciparum, 3D7, read-out: EC50 in wild-type parasites. The protocol: as §1, with “test. […]” for “test.”
For a further assay, the system named is P. falciparum. Particulars: read-out: EC50 against P. falciparum in whole-cell assays; cited from earlier work.
The test system of a further assay is eIF2α phosphorylation. To be noted: cited from earlier work.
Where [6] appears, read: DD2, 72-hour exposure, SYBR Green, read-out: P. falciparum Dd2 wildtype Asexual blood stage EC50.

On to `O=C(O)CCCC(=O)Nc1nccnc1C(=O)NC1Cc2ccccc2C1` [Compound 5], for which the EC50 (usually the midpoint of the concentration-response curve) in assay [1] (setting [6]) is above 10000 nM. Regarding `Nc1nccnc1C(=O)NC1CCCCC1` [Compound 29], the concentration for a half-maximal effect (EC50) in assay [1] (setting [6]) was above 10000 nM. Consider `O=C(NC1CCCCC1)c1nccnc1NC(=O)C1Cc2ccccc2C1` [Compound 30], for which the 50% effective concentration (EC50) in assay [1] (setting [6]) was 9540 nM.

As to `O=C(NC1Cc2ccccc2C1)c1nccnc1NC(=O)N1CCCCC1` [Compound 18], the EC50 in assay [2] came to 130 nM; in assay [1] (setting [6]), 63 nM; in the assay on wild-type 3D7 parasites, 78 nM. Moreover, the results for the IC50 in assay [3] and in assay [4] were 130 nM and 74 nM, respectively. Besides, the “Binding mode to PfcPRS relative to proline” value in assay [5] is given as “binds PfcPRS in proline-uncompetitive fashion”. Besides, in assay [5] (with 1 mM vs 0 mM Proline, FIG. 3C), the “Effect of proline on binding to PfcPRS (differential scanning fluorimetry)” value is given as “Pro potentiates Compound 18 binding to PfcPRS”. On to `O=C(O)c1nccnc1C(=O)NC1Cc2ccccc2C1` [Compound 27], for which, in assay [1] (setting [6]), the EC50 was above 10000 nM.

Take `CN1CCN(C(=O)Nc2nccnc2C(=O)NC2Cc3ccccc3C2)CC1` [Compound 10]: in assay [1] (setting [6]), the EC50 came out at 1830 nM.

As for `O=C(NC1Cc2ccccc2C1)c1nccnc1NCC1CCCCC1` [Compound 37], in assay [1] (setting [6]), the EC50 was above 10000 nM. For `O=C(CCCC(=O)NC1(C(=O)Nc2nccnc2C(=O)NC2Cc3ccccc3C2)CCCCC1)NCCOCCOCCNC(=O)COc1cccc2c1C(=O)N(C1CCC(=O)NC1=O)C2=O` (stereo not drawn) [Compound 33], the EC50 in assay [1] (DD2, 72 h, read-out: P. falciparum Dd2 wildtype Asexual blood stage EC50 (nM)) is 8540 nM. Regarding `O=C(Nc1nccnc1C(=O)NC1Cc2ccccc2C1)NC12CC3CC(CC(C3)C1)C2` [Compound 39], in assay [1] (setting [6]), the EC50 was above 10000 nM. Take `O=C(NC1Cc2ccccc2C1)c1nccnc1NC(=O)N1CCCC(C(=O)O)C1` (stereo not drawn) [Compound 11]: the EC50 in assay [1] (setting [6]) came out at 6200 nM.

Regarding `CC(C)(C)OC(=O)N1CCCCC1C(=O)Nc1nccnc1C(=O)NC1Cc2ccccc2C1` (stereo not drawn) [Compound 6], the concentration giving a half-maximal response (EC50) in assay [1] (setting [6]) was 3790 nM. Consider `Nc1ncnc2c1ncn2[C@@H]1O[C@H](COS(=O)(=O)NC(=O)[C@@H]2CCCN2)[C@@H](O)[C@H]1O` [ProSA, L-prolyl-sulfamoyl adenosine], for which, in the assay on P. falciparum, the EC50 is 97 nM. Also, the eIF2α phosphorylation entry in the assay on eIF2α phosphorylation is “induces eIF2α phosphorylation”. As for `C[C@@H]1CCC[C@H](C)N1C(=O)Nc1nccnc1C(=O)NC1Cc2ccccc2C1` [Compound 14], the EC50 in assay [1] (setting [6]) is 73 nM. Still for that read-out and setting: then `O=C(NC1Cc2ccccc2C1)c1nccnc1NC(=O)C1CCOCC1` [Compound 20], with above 10000 nM; and `CN(C(=O)c1nccnc1N)C1Cc2ccccc2C1` [Compound 38], with above 10000 nM. For `CC(C)(C)OC(=O)N[C@H]1CC[C@@H](C(=O)Nc2nccnc2C(=O)NC2Cc3ccccc3C2)CC1` [Compound 23], the concentration giving a half-maximal response (EC50) in assay [1] (setting [6]) worked out at 386 nM. The same measure, in the same setting: for `Nc1nccnc1C(=O)NCc1ccc(Cl)cc1` [Compound 12] the value was above 10000 nM. As for `CC1(C(=O)Nc2nccnc2C(=O)NC2Cc3ccccc3C2)CCCCC1` [Compound 19], the EC50 in assay [1] (setting [6]) was found to be 173 nM. Same read-out and setting: then `NC1(C(=O)Nc2nccnc2C(=O)NC2Cc3ccccc3C2)CCCCC1` [Compound 34], with 4840 nM. With `CNc1nccnc1C(=O)NC1Cc2ccccc2C1` [Compound 31], the 50% effective concentration (EC50) in assay [1] (setting [6]) is above 10000 nM.

Turning to `O=c1[nH]c2nccnc2c(=O)n1C1Cc2ccccc2C1` [Compound 25], the EC50 in assay [1] (setting [6]) is above 10000 nM. On the same count and under the same terms, then `O=C(Nc1nccnc1C(=O)NC1Cc2ccccc2C1)c1ccccc1` [Compound 24], with above 10000 nM. On the same count and under the same terms, then `O=C(NC1Cc2ccccc2C1)c1nccnc1NS(=O)(=O)C1CCCCC1` [Compound 17], with above 10000 nM; and `CC(C)(C)OC(=O)NC1(C(=O)Nc2nccnc2C(=O)NC2Cc3ccccc3C2)CCCCC1` [Compound 32], with 9520 nM. With `CC(C)N(C(=O)Nc1nccnc1C(=O)NC1Cc2ccccc2C1)C(C)C` [Compound 8], the EC50 in assay [1] (setting [6]) was determined as 499 nM. Still for that read-out and setting: for `O=C(NC1Cc2ccccc2C1)c1nccnc1NC(=O)C1(O)CCCCC1` [Compound 21] the value was 1350 nM; for `CC(C)(C)OC(=O)N1CCC[C@H]1C(=O)NCCCCNC(=O)Nc1nccnc1C(=O)NC1Cc2ccccc2C1` [Compound 3], above 10000 nM; for `Nc1nccnc1C(=O)NC1Cc2ccccc2C1` [Compound 15], above 10000 nM. With `O=C(Nc1nccnc1C(=O)NC1Cc2ccccc2C1)NC1CCCCC1` [Compound 36], in assay [1] (setting [6]), the EC50 is above 10000 nM. For the molecule `O=C(NCCCCNC(=O)[C@@H]1CCCN1)Nc1nccnc1C(=O)NC1Cc2ccccc2C1` [Compound 4], the half-maximal effective concentration (EC50) in assay [1] (setting [6]) is above 10000 nM. The same measure, in the same setting: for `O=C(NC1CCCCC1)c1nccnc1C(=O)NC1Cc2ccccc2C1` [Compound 28] the value was above 10000 nM.

For the molecule `O=C(NC1Cc2ccccc2C1)c1nccnc1NC(=O)C1CCCCC1` [Compound 16], the IC50 (usually the midpoint of a concentration-inhibition curve) in assay [3] amounted to 1160 nM. Moreover, in assay [1] (setting [6]), the EC50 is 544 nM.

Consider `O=C(NC1Cc2ccccc2C1)c1nccnc1N(C(=O)C1CCCCC1)C(=O)C1CCCCC1` [Compound 22], for which, in assay [1] (setting [6]), the EC50 amounted to 627 nM. Still for that read-out and setting: for `NC(=O)Nc1nccnc1C(=O)NC1Cc2ccccc2C1` [Compound 26] the value was 9960 nM. On the same count and under the same terms, then `O=C(NC1Cc2ccccc2C1)c1nccnc1NC(=O)C1CCC1` [Compound 9], with 3540 nM; and `NCCCCNC(=O)Nc1nccnc1C(=O)NC1Cc2ccccc2C1` [Compound 1], with above 10000 nM; and `O=C(C[C@H]1NCCC[C@@H]1OC(=O)NCCCCNC(=O)Nc1nccnc1C(=O)NC1Cc2ccccc2C1)Cn1cnc2cc(Br)c(Cl)cc2c1=O` [Compound 2], with above 10000 nM.

Regarding `O=C(NC1Cc2ccccc2C1)c1nccnc1NC(=O)N(C1CCCCC1)C1CCCCC1` [Compound 13], the half-maximal effective concentration (EC50) in assay [1] (setting [6]) is 4940 nM. Still for that read-out and setting: then `O=C(NC1Cc2ccccc2C1)c1nccnc1NC(=O)C1CCCCN1` (stereo not drawn) [Compound 7], with 2990 nM; and `O=C(NC1Cc2ccccc2C1)c1nccnc1NC(=S)NC1CCCCC1` [Compound 35], with 8270 nM.
